In patent US20250051409A1, “MODULATORS OF PHOSPHATIDYLSERlNE DECARBOXYLASE AND USE THEREOF” (THE NATIONAL INSTITUTE FOR BIOTECHNOLOGY IN THE NEGEV LTD., priority 2021, published 2025):
Where two headings read alike, the source gives them in different places. Square brackets hold non-standard residues; d marks the D form. Ends that are not written are not given here. Peptide text beside a SMILES is read from it. Dmt = Cc1cc(O)cc(C)c1C[C@H](N)C(=O)O; Orn = NCCC[C@H](N)C(=O)O

Legend:
[1] = test system: A549 lung cancer cell; format: cell-based, human
Protocol: (B) Inhibition of PSD activity by the 2F3 (●) or 1C11 (◯) peptide. PSD activity was measured using the DSB-3 method. (C-E) Cell proliferation inhibition following incubation of A549 cells with the indicated mitochondria- or nuclear-targeted peptides for 24 h in a serum-free medium, and cell proliferation was assayed using the SRB method. Results are the means±SEM (n=3). (F) A549 cells were incubated for 90 min with 5 μM of the mitochondria- or nuclear targeted FITC-labelled peptides, immunostained with anti-SMAC antibodies and with DAPI and visualized by confocal microscope for subcellular localization. Arrows indicates nuclear (n=3). Scale bars represent 20
(A) A549 cells were incubated with the indicated concentration of 1C11-HTRA2-derived peptide targeted to the mitochondrion with the targeting sequence added to the N-terminus (N-Ter) or the C-terminus (C-Ter). (B) Mitochondrion targeted 1C11-HTRA2-derived peptide was modified by replacing the three amino acids in the C or the N-terminus of the peptide, or all amino acids in the peptide with the D-confirmation of the amino acid (underlined amino acids)). Following 24 h incubation in a serum-free medium, cell proliferation was assayed using the SRB method. (C) The concentration required for 50% inhibition of cell proliferation (IC50) is presented. Results are the means±SEM (n=3).
A549 (human lung adenocarcinoma epithelial cell), HEK-293T (human embryonic kidney), H1563/CRL-5875 (non-small cell lung cancer adenocarcinoma), H-358 (bronchioalveolar carcinoma), HaCaT (spontaneously transformed aneuploid immortal human skin keratinocyte), and WI-38 (fibroblast-like fetal lung cell) cell lines were purchased from the American Type Culture Collection (ATCC) (Manassas, VA), and were maintained as per ATCC instructions. Cells were maintained in ATCC recommended medium at 37° C. in an incubator with 5% CO2. Cell lines were routinely tested for Mycoplasma contamination. For SMAC overexpression, cells were seeded (200,000 cells/well) on 6-well culture plates and allowed to adhere overnight. These adhered cells were transfected with PVMV3.1-SMAC or empty vector using the JetPRIME transfection reagent (Illkirch, France), according to the manufacturers' instructions. Medium was changed 6 h post transfection, and cells were harvested 48 h post transfection.
Cells were seeded in 96-well cell culture plates (8,000/well) and allowed to grow for 48 h. After washing with PBS, cells were fixed with 10% trichloroacetic acid, and stained with SRB for 20 min. Excess SRB were removed, and cells were washed with 1% acetic acid. SRB extraction was done using 100 mM Tris-base, and absorbance at 510 nm was determined using an Infinite M1000 plate reader (Tecan, Mannedorf, Switzerland).

[2] = test system: A549 cell xenografts; conditions: tumors injected 3 times a week, final concentration 50 μM
Protocol: A549 cells were S.C. inoculated into female nude mice (7×10^6 cells/mouse). Tumors sizes were measured (using a digital caliper) and volumes were calculated. When tumors volumes reached 60-100 mm3 (day 12), the mice were divided into 2 groups and xenografts were untreated (●) or treated with HtrA2/Omi-derived D-amino acid peptide targeted to the mitochondria (D-HTRA2-M, o). The tumors were injected 3 times a week to a final concentration of 50 μM. […] Tumors of A549 cell xenografts were dissected, photographed (B) and weighted (C). […] Results represent the means±SEM (n=8), **P≤0.01, ***P≤0.001.
A549 cells were inoculated subcutaneously into female nude mice (7×10^6 cells/mouse). Tumors sizes were measured (using a digital caliper) and volumes were calculated. When tumors volumes reached 60-100 mm3 (day 12), the mice were divided into 2 groups (control and treatment) and in the treatment group xenografts were treated with HtrA2/Omi-derived D-amino acid peptide (SEQ ID NO:35) targeted to the mitochondria. The tumors were injected 3 times a week to a final concentration of 50 μM or the peptide was administered by intravenous injection 2 times a week to a final concentration of 20 mg/kg. Tumors of A549 cell xenografts were dissected, photographed and weighted.

[3] = test system: different cell lines; conditions: cited from earlier work

For `Cc1cc(O)cc(C)c1C[C@H](NC(=O)[C@H](N)CCCNC(=N)N)C(=O)N[C@@H](CCCN)C(=O)N[C@@H](Cc1ccccc1)C(=O)N[C@@H](C)C(=O)N[C@@H](CC(C)C)C(=O)N[C@@H](CC(C)C)C(=O)N[C@H](C(=O)N[C@@H](CO)C(=O)NCC(=O)N[C@H](C(=O)N[C@@H](CO)C(=O)N[C@@H](CC(=O)O)C(=O)N1CCC[C@H]1C(=O)N[C@@H](CCCNC(=N)N)C(=O)N[C@@H](C)C(=O)N[C@@H](CCCNC(=N)N)C(=O)N[C@H](C(=O)N[C@H](C(=O)N[C@@H](Cc1ccc(O)cc1)C(=O)NCC(=O)N[C@H](C(=O)N1CCC[C@H]1C(=O)N[C@@H](CO)C(=O)N[C@@H](CC(C)C)C(=O)N[C@@H](Cc1c[nH]c2ccccc12)C(=O)N[C@@H](C)C(=O)N[C@@H](CCCNC(=N)N)C(=O)N[C@@H](CC(C)C)C(=O)O)[C@@H](C)O)[C@@H](C)O)C(C)C)[C@@H](C)O)[C@@H](C)O` [D-Arg-Dmt-Orn-Phe-1C11] (H-[dR][Dmt][Orn]FALLTSGTSDPRARVTYGTPSLWARL-OH; N-terminus and C-terminus assumed), which IC50 ([1]; 24 h) is on record?
Its IC50 is 89.3 ± 5.49 µM.

Which IC50 ([1]; 24 h) does the source give for `CC(C)C[C@H](NC(=O)[C@H](CC(=O)O)NC(=O)[C@H](CO)NC(=O)[C@H](CO)NC(=O)[C@H](Cc1c[nH]cn1)NC(=O)[C@H](CC(=O)O)NC(=O)[C@@H](NC(=O)CNC(=O)[C@H](CCC(N)=O)NC(=O)[C@H](Cc1ccccc1)NC(=O)[C@H](C)NC(=O)[C@H](CCCNC(=N)N)NC(=O)[C@H](CO)NC(=O)[C@H](CO)NC(=O)[C@H](CCC(N)=O)NC(=O)[C@H](CC(N)=O)NC(=O)[C@@H]1CCCN1C(=O)[C@H](CCCCN)NC(=O)[C@H](CCCNC(=N)N)NC(=O)[C@@H](CCCNC(=N)N)NC(=O)[C@@H](N)CCCNC(=N)N)[C@@H](C)O)C(=O)N[C@@H](C)C(=O)N[C@@H](Cc1ccccc1)C(=O)N[C@@H](CC(=O)O)C(=O)N[C@@H](Cc1ccccc1)C(=O)N[C@@H](CC(C)C)C(=O)N[C@@H](CO)C(=O)N[C@@H](CCC(N)=O)C(=O)N[C@@H](CCC(N)=O)C(=O)O` [R-{D-Arg}-RK-2I8] (H-R[dR]RKPNQSSRAFQGTDHSSDLAFDFLSQQ-OH; N-terminus and C-terminus assumed) here?
The IC50 was over 100 µM.

For `Cc1cc(O)cc(C)c1C[C@H](NC(=O)[C@@H](CCCNC(=N)N)NC(=O)[C@H](CC(C)C)NC(=O)[C@H](CCCNC(=N)N)NC(=O)[C@H](C)NC(=O)[C@H](Cc1c[nH]c2ccccc12)NC(=O)[C@H](CC(C)C)NC(=O)[C@H](CO)NC(=O)[C@@H]1CCCN1C(=O)[C@@H](NC(=O)CNC(=O)[C@H](Cc1ccc(O)cc1)NC(=O)[C@@H](NC(=O)[C@@H](NC(=O)[C@H](CCCNC(=N)N)NC(=O)[C@H](C)NC(=O)[C@H](CCCNC(=N)N)NC(=O)[C@@H]1CCCN1C(=O)[C@H](CC(=O)O)NC(=O)[C@H](CO)NC(=O)[C@@H](NC(=O)CNC(=O)[C@H](CO)NC(=O)[C@@H](NC(=O)[C@H](CC(C)C)NC(=O)[C@H](CC(C)C)NC(=O)[C@H](C)N)[C@@H](C)O)[C@@H](C)O)C(C)C)[C@@H](C)O)[C@@H](C)O)C(=O)N[C@@H](CCCN)C(=O)N[C@@H](Cc1ccccc1)C(N)=O` [1C11-D-Arg-Dmt-Orn-Phe] (H-ALLTSGTSDPRARVTYGTPSLWARL[dR][Dmt][Orn]F-NH2; N-terminus and C-terminus assumed), which IC50 ([1]; 24 h) is on record?
Its IC50 is 30.3 ± 5.5 µM.

With FQQLTCVLPILDNLLKANVINKQEH [1E14] as the compound, how does the “effect on cell growth” value ([1]; targeted to the mitochondria or the nucleus) read?
Its value is “no effect on cell growth”.

What does the source list for “SEQ ID NO:35: HtrA2/Omi-derived D-amino acid peptide targeted to the mitochondria ([dA][dL][dL][dT][dS]G[dT][dS][dD][dP][dR][dA][dR][dV][dT][dY]G[dT][dP][dS][dL][dW][dA][dR][dL])”?
decrease in tumor weight [2]: up to 80%; increase of tumor volume ([2]; after 28 days): about 4 fold

For `CC[C@H](C)[C@H](NC(=O)[C@@H](NC(=O)[C@H](CC(N)=O)NC(=O)[C@H](C)NC(=O)[C@H](CCCCN)NC(=O)[C@H](CC(C)C)NC(=O)[C@H](CC(C)C)NC(=O)[C@H](CC(N)=O)NC(=O)[C@H](CC(=O)O)NC(=O)[C@H](CC(C)C)NC(=O)[C@@H](NC(=O)[C@@H]1CCCN1C(=O)[C@H](CC(C)C)NC(=O)[C@@H](NC(=O)[C@H](CS)NC(=O)[C@@H](NC(=O)[C@H](CC(C)C)NC(=O)[C@H](CCC(N)=O)NC(=O)[C@H](CCC(N)=O)NC(=O)[C@H](Cc1ccccc1)NC(=O)[C@H](CCCCN)NC(=O)[C@H](CCCNC(=N)N)NC(=O)[C@@H](CCCNC(=N)N)NC(=O)[C@@H](N)CCCNC(=N)N)[C@@H](C)O)C(C)C)[C@@H](C)CC)C(C)C)C(=O)N[C@@H](CC(N)=O)C(=O)N[C@@H](CCCCN)C(=O)N[C@@H](CCC(N)=O)C(=O)N[C@@H](CCC(=O)O)C(=O)N[C@@H](Cc1c[nH]cn1)C(=O)O` [R-{D-Arg}-RK-1E14] (H-R[dR]RKFQQLTCVLPILDNLLKANVINKQEH-OH; N-terminus and C-terminus assumed), which IC50 ([1]; 24 h) is on record?
Its IC50 is over 100 µM.

Which IC50 ([1]; 24 h) does the source give for `CC[C@H](C)[C@H](NC(=O)[C@@H]1CCCN1C(=O)[C@H](CO)NC(=O)[C@H](CO)NC(=O)[C@@H](NC(=O)[C@H](CO)NC(=O)[C@H](CC(C)C)NC(=O)[C@H](C)N)[C@@H](C)O)C(=O)N1CCC[C@H]1C(=O)N[C@@H](CO)C(=O)N[C@H](C(=O)N1CCC[C@H]1C(=O)N[C@@H](CCC(N)=O)C(=O)N[C@@H](CO)C(=O)N[C@@H](CCC(N)=O)C(=O)N[C@@H](C)C(=O)N[C@@H](CCC(N)=O)C(=O)N1CCC[C@H]1C(=O)N[C@@H](CCC(N)=O)C(=O)N[C@H](C(=O)NCC(=O)N[C@@H](CO)C(=O)NCC(=O)N[C@@H](C)C(=O)N[C@@H](CO)C(=O)N[C@@H](CCCNC(=N)N)C(=O)N[C@H](CCCNC(=N)N)C(=O)N[C@@H](CCCNC(=N)N)C(=O)N[C@@H](CCCCN)C(=O)O)[C@@H](C)O)C(C)C` [2F3-R-{D-Arg}-RK] (H-ALSTSSPIPSVPQSQAQPQTGSGASR[dR]RK-OH; N-terminus and C-terminus assumed) here?
The IC50 was 29.6 ± 0.6 µM.

Which IC50 [1] does the source give for ALSTSSPIPSVPQSQAQPQTGSGAS [2F3] here?
The IC50 was 19.6 µM.

For [dR][Dmt][Orn]F [mtCPP-1], which induction of apoptosis [3] is on record?
The induction of apoptosis was “did not induce apoptosis”.

What about the “toxicity in cell lines” value [3] of the same compound?
The value was “no toxicity”.

With `CC[C@H](C)[C@H](NC(=O)[C@@H]1CCCN1C(=O)[C@H](CO)NC(=O)[C@H](CO)NC(=O)[C@@H](NC(=O)[C@H](CO)NC(=O)[C@H](CC(C)C)NC(=O)[C@H](C)NC(=O)[C@H](CCCCN)NC(=O)[C@H](CCCNC(=N)N)NC(=O)[C@@H](CCCNC(=N)N)NC(=O)[C@@H](N)CCCNC(=N)N)[C@@H](C)O)C(=O)N1CCC[C@H]1C(=O)N[C@@H](CO)C(=O)N[C@H](C(=O)N1CCC[C@H]1C(=O)N[C@@H](CCC(N)=O)C(=O)N[C@@H](CO)C(=O)N[C@@H](CCC(N)=O)C(=O)N[C@@H](C)C(=O)N[C@@H](CCC(N)=O)C(=O)N1CCC[C@H]1C(=O)N[C@@H](CCC(N)=O)C(=O)N[C@H](C(=O)NCC(=O)N[C@@H](CO)C(=O)NCC(=O)N[C@@H](C)C(=O)N[C@@H](CO)C(=O)O)[C@@H](C)O)C(C)C` [R-{D-Arg}-RK-2F3] (H-R[dR]RKALSTSSPIPSVPQSQAQPQTGSGAS-OH; N-terminus and C-terminus assumed) as the compound, how does the IC50 ([1]; 24 h) read?
The IC50 was 28.9 ± 5.2 µM.

Which IC50 ([1]; 24 h) does the source give for `CC(C)C[C@H](NC(=O)[C@H](CCCNC(=N)N)NC(=O)[C@H](C)NC(=O)[C@H](Cc1c[nH]c2ccccc12)NC(=O)[C@H](CC(C)C)NC(=O)[C@H](CO)NC(=O)[C@@H]1CCCN1C(=O)[C@@H](NC(=O)CNC(=O)[C@H](Cc1ccc(O)cc1)NC(=O)[C@@H](NC(=O)[C@@H](NC(=O)[C@H](CCCNC(=N)N)NC(=O)[C@H](C)NC(=O)[C@H](CCCNC(=N)N)NC(=O)[C@@H]1CCCN1C(=O)[C@H](CC(=O)O)NC(=O)[C@H](CO)NC(=O)[C@@H](NC(=O)CNC(=O)[C@H](CO)NC(=O)[C@@H](NC(=O)[C@H](CC(C)C)NC(=O)[C@H](CC(C)C)NC(=O)[C@H](C)NC(=O)[C@H](CCCCN)NC(=O)[C@H](CCCNC(=N)N)NC(=O)[C@@H](CCCNC(=N)N)NC(=O)[C@@H](N)CCCNC(=N)N)[C@@H](C)O)[C@@H](C)O)C(C)C)[C@@H](C)O)[C@@H](C)O)C(=O)O` [R-{D-Arg}-RK-1C11] (H-R[dR]RKALLTSGTSDPRARVTYGTPSLWARL-OH; N-terminus and C-terminus assumed) here?
Its IC50 is 66.5 ± 3.9 µM.
